Experimental data as given in patent US20200181284A1, “EPIGENETIC INHIBITORS FOR SENSITIZING HEMATOLOGIC OR OTHER MALIGNANCIES TO GLUCOCORTICOID THERAPY” (UNIVERSITY OF SOUTHERN CALIFORNIA, priority 2017, published 2020).
“Also recorded” adds a separate entry of the source. Blank lines part the entries; values can stand above or below the compound they belong to.

How the values were obtained:
hG9a = biological target: T1, hG9a (Homo sapiens, UniProt Q96KQ7); experiment: Methylation of HA-hG9a in Cos-7 cells (pan met-K immunoprecipitation/immunoblot); format: cell-based, African green monkey; details: Cos-7 cells, 24 h
T1 construct: transfected with a plasmid encoding full length HA-hG9a and treated with 2 μM UNC0646; expressed in transfected cells; host or cells: Cos-7
T1 sequence (Q96KQ7 1-1210): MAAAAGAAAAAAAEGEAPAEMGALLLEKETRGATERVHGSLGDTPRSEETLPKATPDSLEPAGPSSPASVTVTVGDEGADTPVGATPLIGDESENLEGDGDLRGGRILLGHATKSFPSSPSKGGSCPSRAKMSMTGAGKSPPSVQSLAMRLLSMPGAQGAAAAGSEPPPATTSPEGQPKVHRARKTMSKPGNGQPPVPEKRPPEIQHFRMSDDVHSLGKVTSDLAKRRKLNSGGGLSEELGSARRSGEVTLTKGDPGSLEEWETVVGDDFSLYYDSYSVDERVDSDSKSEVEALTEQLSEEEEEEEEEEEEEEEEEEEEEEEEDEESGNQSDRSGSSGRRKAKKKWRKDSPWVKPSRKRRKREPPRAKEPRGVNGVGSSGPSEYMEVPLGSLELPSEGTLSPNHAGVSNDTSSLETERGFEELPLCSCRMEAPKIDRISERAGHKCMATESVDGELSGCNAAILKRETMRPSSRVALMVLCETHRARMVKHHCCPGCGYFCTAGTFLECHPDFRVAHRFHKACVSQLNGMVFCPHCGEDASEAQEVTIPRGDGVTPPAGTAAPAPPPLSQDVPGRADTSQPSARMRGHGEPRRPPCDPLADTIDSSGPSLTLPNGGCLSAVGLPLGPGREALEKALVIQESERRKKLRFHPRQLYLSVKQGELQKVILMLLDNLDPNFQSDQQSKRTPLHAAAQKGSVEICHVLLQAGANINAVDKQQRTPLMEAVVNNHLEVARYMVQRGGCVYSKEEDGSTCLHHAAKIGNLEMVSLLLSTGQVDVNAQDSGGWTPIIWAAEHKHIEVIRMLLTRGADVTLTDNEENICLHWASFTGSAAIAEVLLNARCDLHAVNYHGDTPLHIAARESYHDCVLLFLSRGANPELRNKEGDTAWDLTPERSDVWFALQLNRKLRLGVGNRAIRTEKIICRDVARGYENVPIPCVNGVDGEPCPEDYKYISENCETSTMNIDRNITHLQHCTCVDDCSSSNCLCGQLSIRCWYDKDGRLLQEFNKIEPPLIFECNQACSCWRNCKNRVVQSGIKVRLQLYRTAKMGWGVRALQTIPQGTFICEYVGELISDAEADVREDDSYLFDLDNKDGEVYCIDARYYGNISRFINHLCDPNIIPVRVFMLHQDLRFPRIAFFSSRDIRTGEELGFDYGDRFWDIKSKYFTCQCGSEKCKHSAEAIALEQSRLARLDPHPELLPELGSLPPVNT
Method: Cells were transiently transfected (where indicated) using Lipofectamine 2000 (Invitrogen) with 5 μg each of the indicated plasmids according to the manufacturer's protocol. […] Protein extracts were incubated with 1 μg of the indicated primary antibodies overnight at 4° C. with shaking. Protein A/G Plus Agarose (Santa Cruz sc-2003) beads were added and the mixture was incubated 2 hr at 4° C. The immunoprecipitates were separated on SDS-PAGE. Immunoblotting was conducted with primary antibodies against HA epitope (3F10 Roche Applied Science); G9a (G6919), FLAG (F1804), (3-actin (A5441), or GAPDH (G9545) from Sigma; aurora kinase B (ab2254), HP1γ (ab10480), HP1γ (ab56978), phospho-593-HP1γ (ab45270) or pan methyllysine (ab23366) from Abcam; GR (sc-8992) from Santa Cruz; GLP (09-078), or pan phospho-threonine (AB1607) from Millipore; phospho-S211-GR (#4161), H3K9me3 (#13969), H3S10ph (#53348), Histone H3 (#4499) from Cell signaling; or E-cadherin (610182) from BD transduction laboratories. Secondary antibodies from Santa Cruz Biotechnology (anti-rat) and Promega (anti-rabbit and anti-mouse) were used for chemiluminescence detection using Super Signal West Dura (Thermo Scientific) for proteins with low expression levels and ECL prime detection reagent (Amersham) for all other proteins according to the manufacturers' instructions. In immunoprecipitation experiments 3% of the input of each sample was analyzed by immunoblot using the antibodies listed.
Lysates were immunoprecipitated (IP) with pan met-K antibody and immunoblotted with HA antibody (top), or the usage of the two antibodies was reversed (bottom). Expression of HA-tagged proteins and β-actin (loading control) in the unfractionated extracts is shown at the bottom (Input). For FIG. 17D, Cos-7 cells were transfected with a plasmid encoding full length HA-hG9a and treated with 2 μM UNC0646 or vehicle DMSO for 24 h. Lysates were immunoprecipitated with pan met-K antibody and immunoblotted with HA antibody (top), or the usage of the two antibodies was reversed (bottom).
Lysates were immunoprecipitated with pan met-K antibody and immunoblotted with HA antibody (top).

NALM6 cells = experiment: Cell death assay (Presto Blue, 72 h) with dex plus inhibitor; format: cell-based, human; details: NALM-6, 16 nM Alisertib, 72 h
Method: Cells were plated in CellStar low evaporation lid 96-well round-bottom plate at a density of 100,000 cells/ml. Directly after plating, cells were treated in triplicate with serial dilutions of dexamethasone or vehicle control (0.1% ethanol). After 72 h, cell viability of each well was analyzed in duplicate using the Presto Blue Assay Reagent (Life Technologies). Fluorescence was measured and data were analyzed with Prism6 software.
FIGS. 40A, 40B, 40C, 40D-1, 40D-2, 40D-3, and 40D-4 show Aurora kinase B inhibitors sensitizing NALM6 cells to GC-induced cell death. As shown in FIGS. 40A and 40B, NALM6 cells were treated with the indicated dex concentration in addition to 0.75 μM ZM447439 (FIG. 40A), 16 nM AZD2811 (FIG. 40B), or equivalent volume of vehicle DMSO for 72 h, and cell survival was measured by a fluorescence metabolic assay. In each condition, the value measured with dex was normalized to the fluorescence value measured with ethanol. Percentage of survival is shown as the mean±SEM of 4 independent experiments and p-values for individual dex concentrations were calculated using a paired t-test. *p≤0.05, **p≤0.01, * * *p≤0.001. F-test comparing the two curves: p≤0.001. Insets show the EC50s that were calculated as the concentration at which half the cells remained alive, compare to vehicle controls. Error bars depict the SEM of 4 independent experiments and p-values were calculated to compare AURKB inhibitor treatment to DMSO using a paired t-test ** p≤0.01, * * *p≤0.001. […] The indicated proteins were then examined by immunoblot. As shown in FIGS. 40D-1, 40D-2, 40D-3, and 40D-4, NALM6 cells pre-treated with AZD2811 (16 nM) or DMSO for 24 h, were then treated for 8 h with 100 nM dex or ethanol. mRNA levels for the indicated GR target genes were measured by RT-qPCR and normalized to β-actin mRNA levels.
FIGS. 48A, 48B, 48C, 48D, 48E, and 48F show the effect of AURKB inhibitors on EHMT2 phosphorylation and dex-induced cell death. […] In each condition, the value measured with dex was normalized to the fluorescence value measured with ethanol. Percentage of survival is shown as the mean±SEM of 4 independent experiments and p-values for individual dex concentrations were calculated using a paired t-test. *p≤0.05, **p≤0.01, * * *p≤0.001. F-test comparing the two curves: p≤0.001. EC50s were calculated as the concentration at which half the cells remained alive, compare to vehicle controls. Error bars depict the SEM of 4 independent experiments and p-value was calculated to compare ZM treatment to DMSO using a paired t-test **p≤0.01, * * *p≤0.001. […] EC50s were calculated as the concentration at which half the cells remained alive, compare to vehicle controls. Error bars depict the SEM of 4 independent experiments and p-value was calculated to compare alisertib treatment to DMSO using a paired t-test. […] (E-F) RCH-ACV cells were treated with the indicated dex concentration in addition to 0.75 μM ZM447439 (FIG. 48E), 16 nM AZD2811 (FIG. 48F), or DMSO for 72 h, and cell survival was measured by a fluorescence metabolic assay. In each condition, the value measured with dex was normalized to the fluorescence value measured with ethanol. Percentage of survival is shown as the mean±SEM of 5 individual experiments and the p-value for each dex concentration was calculated using a paired t-test. *p≤0.05, **p≤0.01, * * *p≤0.001. F-test comparing the two curves: p≤0.001.
FIGS. 55A, 55B, and 55C show JIB-04 enhances GC-induced death of B-ALL cell line NALM6.

- pan-methyllysine antibody signal on wild type hG9a (hG9a; 40 μM): strongly decreased
SMILES: Nc1ncnc2c1ncn2C(C=O)OC(C=O)CO (stereo not drawn) [Adox, adenosine dialdehyde]

SMILES: COc1cc(Nc2ncc3c(n2)-c2ccc(Cl)cc2C(c2c(F)cccc2OC)=NC3)ccc1C(=O)O [Alisertib]
- cell survival with dex (NALM6 cells): not significant; also recorded: did not have any effect

SMILES: COc1cc2c(NC3CCN(C(C)C)CC3)nc(N3CCC(F)(F)CC3)nc2cc1OCCCN1CCCC1 [UNC0642]
- pan-methyllysine antibody signal on wild type hG9a (hG9a; 2 μM inhibitor): strongly decreased
